Reference: patent US10681911B2, “Anthelminthic composition” (AgResearch Limited, priority 2016, dated 2020)

Experiments:
[1] = tested on: eggs of free-living parasitic nematodes; experiment: Egg hatch assay
Experimental: Approximately 125 eggs were place in 24 well plate wells and treatments applied. After 24 hours, unhatched eggs and larvae were numerated by microscopic examination. Town supply tap water was used for solution preparation and used as the reference control treatment Sodium hypochlorite was added to tap-water to form a bleach solution containing 5% w/v NaOCl […]

[2] = tested on: nematode egg and larval stages in dung; experiment: Mini dung egg hatch-survival assay; conditions: treatments applied to fresh dung on days 0 through 7, harvested days 12-16
Experimental: All the dung samples were then left until day 12 when the first replicates were harvested. The last replicate was sampled on day 16. Hatched larvae were separated from the dung and numerated via microscopic examination. Town supply tap water was used for solution preparation and used as the reference control treatment. Sodium hypochlorite was added to tap-water to form a bleach solution containing 5% w/v NaOCl.

[3] = format: physicochemical
[4] = tested on: Haemonchus contortus L3; conditions: in vivo
[5] = tested on: Haemonchus controtus L3; experiment: Petri-dish laboratory study of efficacy against L3; conditions: for Measured efficacy: 24 ml solution, live L3 recovered by Baermann funnel, 10 replicates; for effectiveness in killing L3: result in words

OCl [Bleach, Sodium hypochlorite]
effect on eggs and egg hatching ([1]; after 24 hours, result in words): destroyed all the eggs
Average of % hatch ([1]; approximately 125 eggs per well, after 24 hours): 0.0%
Average of larvae ([1]; approximately 125 eggs per well, larvae counted after 24 hours): 0.0
Average of eggs ([1]; approximately 125 eggs per well, unhatched eggs counted after 24 hours): 0.3
impact on nematode development in dung [2]: small impact on all stage of the nematode development from the egg through to the L1, 2 and 3 stages

[Ca+2].[OH-].[OH-] [Ca(OH)2 0.1%, calcium hydroxide]
pH 0 [3]: 12.0
impact on L3 numbers in faeces [4]: Neither ammonium nitrate nor calcium hydroxide applied alone or in combination had any impact on L3 numbers in faeces
impact on L3 numbers on pasture [4]: neither ammonium nitrate nor calcium hydroxide applied alone had any impact on L3 numbers on pasture
Measured efficacy ([5]; listed as Ca(OH)2 0.100%): 93%
effectiveness in killing L3 [5]: effective in killing L3

[Ca+2].[OH-].[OH-] [Ca(OH)2 0.05%, calcium hydroxide]
pH 0 [3]: 11.6
Measured efficacy ([5]; listed as Ca(OH)2 0.050%): 69%

[Ca+2].[OH-].[OH-] [Ca(OH)2 0.013%, calcium hydroxide]
pH 0 [3]: 11.0
Measured efficacy [5]: 28%

[Ca+2].[OH-].[OH-] [Ca(OH)2 0.025%, calcium hydroxide]
pH 0 [3]: 11.3
Measured efficacy [5]: 43%

ammonium nitrate [NH4NO3 1.75%]
Measured efficacy [5]: −39%

ammonium nitrate [NH4NO3 3.5%]
Measured efficacy [5]: 12%

ammonium nitrate [NH4NO3 7%]
Measured efficacy [5]: 72%

ammonium nitrate [NH4NO3 13.5%]
Measured efficacy [5]: 97%
effectiveness in killing L3 [5]: effective in killing L3
